≈ marks a conversion by molar mass, not a printed value. Square brackets hold non-standard residues; d marks the D form. Peptide text beside a SMILES is read from it. Gly(1-adamantyl) = N[C@H](C(=O)O)C12CC3CC(CC(C3)C1)C2; Orn = NCCC[C@H](N)C(=O)O Bounds are passed on as bounds.

Results on ten molecules are retold here after ChEMBL document CHEMBL2146376, “'Inverted' analogs of the antibiotic gramicidin S with an improved biological profile” (Bioorg Med Chem, 2012).

Data set [1] relates to Staphylococcus aureus. The data set can be described thus: Antibacterial activity against PVL-deficient and non-typable methicillin-resistant Staphylococcus aureus N229-T034 after 24 hrs by broth dilution method. It is filed as functional. The conditions noted are these: N229-T034, 24 h. (In general: In broth dilution the organism is exposed to a series of concentrations in liquid medium.)

Data set [2] has as its system Staphylococcus epidermidis. The data set can be described thus: Antibacterial activity against Staphylococcus epidermidis ATCC 12228 after 24 hrs by broth dilution method. The conditions noted are these: ATCC 12228, 24 h. It is filed as functional.
Data set [3] concerns Staphylococcus aureus. Put plainly: Antibacterial activity against PVL-positive and non-typable methicillin-resistant Staphylococcus aureus 1110301981H-T034 after 24 hrs by broth dilution method. Format: functional.
Data set [4] deals with Bacillus cereus. The data set can be described thus: Antibacterial activity against Bacillus cereus ATCC 11778 after 24 hrs by broth dilution method. Format: functional. The conditions noted are these: ATCC 11778, 24 h.
Data set [5] in a line: Toxicity in human erythrocytes assessed as concentration required to achieve 100% hemolysis after 4 hrs. Format: cell-based. The conditions noted are these: erythrocyte.
Data set [6] relates to Staphylococcus aureus. Put plainly: Antibacterial activity against PVL-deficient and non-typable methicillin-resistant Staphylococcus aureus N133-T034 after 24 hrs by broth dilution method. It is filed as functional. The conditions noted are these: N133-T034, 24 h.
The subject of data set [7] is Enterococcus faecalis. The data set can be described thus: Antibacterial activity against Enterococcus faecalis ATCC 29212 after 24 hrs by broth dilution method. It is filed as functional. The conditions noted are these: ATCC 29212, 24 h.
The test system of data set [8] is Staphylococcus aureus. Put plainly: Antibacterial activity against Staphylococcus aureus ATCC 29213 after 24 hrs by broth dilution method. Format: functional. The conditions noted are these: ATCC 29213, 24 h.
Data set [9] relates to Pseudomonas aeruginosa. The data set can be described thus: Antibacterial activity against Pseudomonas aeruginosa ATCC 27853 after 24 hrs by broth dilution method. It is filed as functional. The settings on record: ATCC 27853, 24 h.
For data set [10], the system named is Escherichia coli. The data set can be described thus: Antibacterial activity against Escherichia coli ATCC 25922 after 24 hrs by broth dilution method. It is filed as functional. The settings on record: ATCC 25922, 24 h.
Data set [11] deals with Staphylococcus aureus. The data set can be described thus: Antibacterial activity against PVL-positive and non-typable methicillin-resistant Staphylococcus aureus USA300-1110301146 after 24 hrs by broth dilution method. Format: functional. The conditions noted are these: USA300-1110301146, 24 h.

With `NCCC[C@@H]1NC(=O)[C@H](C23CC4CC(CC(C4)C2)C3)NC(=O)[C@H](CCCN)NC(=O)[C@@H]2CCCN2C(=O)[C@@H](Cc2ccccc2)NC(=O)[C@H](CCCN)NC(=O)[C@H](C23CC4CC(CC(C4)C2)C3)NC(=O)[C@H](CCCN)NC(=O)[C@@H]2CCCN2C(=O)[C@@H](Cc2ccccc2)NC1=O` (cyclo([Orn][dF]P[Orn][Gly(1-adamantyl)][Orn][dF]P[Orn][Gly(1-adamantyl)])), the minimal inhibitory concentration (MIC) in data set [1] turned out to be 8 µg/mL (≈ 6.03 µM); in data set [2], 4 µg/mL (≈ 3.01 µM); in data set [3], 8 µg/mL (≈ 6.03 µM); in data set [4], 8 µg/mL (≈ 6.03 µM); in data set [6] it was 8 µg/mL (≈ 6.03 µM); in [7] it was 8 µg/mL (≈ 6.03 µM). In addition, the MIC in data set [8] was determined as 8 µg/mL (≈ 6.03 µM); in data set [9], 16 µg/mL (≈ 12.1 µM); in [10] it was 8 µg/mL (≈ 6.03 µM); in data set [11] it was 8 µg/mL (≈ 6.03 µM). The Activity in [5] came out at 500 µM.

In the case of `NCCC[C@@H]1NC(=O)[C@H](CC23CC4CC(CC(C4)C2)C3)NC(=O)[C@H](CCCN)NC(=O)[C@@H]2CCCN2C(=O)[C@@H](Cc2ccccc2)NC(=O)[C@H](CCCN)NC(=O)[C@H](CC23CC4CC(CC(C4)C2)C3)NC(=O)[C@H](CCCN)NC(=O)[C@@H]2CCCN2C(=O)[C@@H](Cc2ccccc2)NC1=O`, the MIC in data set [1] was determined as 8 µg/mL (≈ 5.9 µM); in [2] it was 4 µg/mL (≈ 2.95 µM); in data set [3], 8 µg/mL (≈ 5.9 µM); in data set [4], 8 µg/mL (≈ 5.9 µM); in data set [6] it was 8 µg/mL (≈ 5.9 µM); in data set [7] it was 8 µg/mL (≈ 5.9 µM). Further, the MIC was 8 µg/mL (≈ 5.9 µM) in data set [8], 16 µg/mL (≈ 11.8 µM) in data set [9], 8 µg/mL (≈ 5.9 µM) in data set [10] and 8 µg/mL (≈ 5.9 µM) in data set [11]. In data set [5], the Activity amounted to 62.5 µM.

Regarding `CCCCCCCCCC[C@@H]1NC(=O)[C@H](CCCN)NC(=O)[C@@H]2CCCN2C(=O)[C@@H](Cc2ccccc2)NC(=O)[C@H](CCCN)NC(=O)[C@H](CCCCCCCCCC)NC(=O)[C@H](CCCN)NC(=O)[C@@H]2CCCN2C(=O)[C@@H](Cc2ccccc2)NC(=O)[C@H](CCCN)NC1=O`, the minimum inhibitory concentration (MIC) in data set [1] is 64 µg/mL (≈ 47.8 µM); in data set [2], 4 µg/mL (≈ 2.99 µM); in data set [3], 64 µg/mL (≈ 47.8 µM); in data set [4] it was 8 µg/mL (≈ 5.97 µM); in data set [6] it was 64 µg/mL (≈ 47.8 µM); in data set [7], 32 µg/mL (≈ 23.9 µM). Besides, the minimal inhibitory concentration (MIC) in [8], in data set [9], in [10] and in [11] was 64 µg/mL (≈ 47.8 µM) throughout. Also, the Activity in [5] came out at 62.5 µM.

On to `CC(C)[C@@H]1NC(=O)[C@H](CCCN)NC(=O)[C@@H]2CCCN2C(=O)[C@@H](Cc2ccccc2)NC(=O)[C@H](CCCN)NC(=O)[C@H](C(C)C)NC(=O)[C@H](CCCN)NC(=O)[C@@H]2CCCN2C(=O)[C@@H](Cc2ccccc2)NC(=O)[C@H](CCCN)NC1=O`, for which the MIC is above 64 µg/mL in data set [1]; 64 µg/mL (≈ 56 µM) in data set [2]; above 64 µg/mL in data set [3]; above 64 µg/mL in [4]; above 64 µg/mL in data set [6]; above 64 µg/mL in data set [7]. For the same molecule, the MIC in data set [8], in [9], in [10] and in [11] was above 64 µg/mL throughout. In addition, in data set [5], the Activity is above 500 µM.

Turning to `CC(C)(C)[C@@H]1NC(=O)[C@H](CCCN)NC(=O)[C@@H]2CCCN2C(=O)[C@@H](Cc2ccccc2)NC(=O)[C@H](CCCN)NC(=O)[C@H](C23CC4CC(CC(C4)C2)C3)NC(=O)[C@H](CCCN)NC(=O)[C@@H]2CCCN2C(=O)[C@@H](Cc2ccccc2)NC(=O)[C@H](CCCN)NC1=O`, the minimum inhibitory concentration (MIC) was 64 µg/mL (≈ 51.2 µM) in data set [1]; 4 µg/mL (≈ 3.2 µM) in data set [2]; 64 µg/mL (≈ 51.2 µM) in data set [3]; 32 µg/mL (≈ 25.6 µM) in data set [4]; 64 µg/mL (≈ 51.2 µM) in [6]; above 64 µg/mL in data set [7]. Besides, the MIC amounted to 64 µg/mL (≈ 51.2 µM) in data set [8], 32 µg/mL (≈ 25.6 µM) in data set [9], 32 µg/mL (≈ 25.6 µM) in data set [10] and 64 µg/mL (≈ 51.2 µM) in [11]. The Activity in [5] was above 500 µM.

In the case of `CC(C)(C)C[C@@H]1NC(=O)[C@H](CCCN)NC(=O)[C@@H]2CCCN2C(=O)[C@@H](Cc2ccccc2)NC(=O)[C@H](CCCN)NC(=O)[C@H](CC(C)(C)C)NC(=O)[C@H](CCCN)NC(=O)[C@@H]2CCCN2C(=O)[C@@H](Cc2ccccc2)NC(=O)[C@H](CCCN)NC1=O`, the minimum inhibitory concentration (MIC) in [1] was above 64 µg/mL; in data set [2], 16 µg/mL (≈ 13.3 µM); in [3], above 64 µg/mL; in [4], above 64 µg/mL; in data set [6], above 64 µg/mL; in data set [7] it was above 64 µg/mL. Further, the minimum inhibitory concentration (MIC) in data set [8] is above 64 µg/mL; in [9] it was 64 µg/mL (≈ 53.4 µM); in data set [10], above 64 µg/mL; in data set [11], above 64 µg/mL. Besides, the Activity in data set [5] is above 500 µM.

With `CC(C)[C@@H]1NC(=O)[C@H](CCCN)NC(=O)[C@@H]2CCCN2C(=O)[C@@H](Cc2ccccc2)NC(=O)[C@H](CCCN)NC(=O)[C@H](C23CC4CC(CC(C4)C2)C3)NC(=O)[C@H](CCCN)NC(=O)[C@@H]2CCCN2C(=O)[C@@H](Cc2ccccc2)NC(=O)[C@H](CCCN)NC1=O`, the MIC in [1] was above 64 µg/mL; in data set [2] it was 16 µg/mL (≈ 12.9 µM); in data set [3], above 64 µg/mL; in data set [4], 64 µg/mL (≈ 51.8 µM); in data set [6], above 64 µg/mL; in [7] it was above 64 µg/mL. Moreover, the MIC in data set [8] is 64 µg/mL (≈ 51.8 µM); in data set [9], 64 µg/mL (≈ 51.8 µM); in [10] it was above 64 µg/mL; in data set [11], above 64 µg/mL. Besides, the Activity in data set [5] is above 500 µM.

As to `CC(C)[C@@H]1NC(=O)[C@H](CCCN)NC(=O)[C@@H]2CCCN2C(=O)[C@@H](Cc2ccccc2)NC(=O)[C@H](CCCN)NC(=O)[C@H](C(C)(C)C)NC(=O)[C@H](CCCN)NC(=O)[C@@H]2CCCN2C(=O)[C@@H](Cc2ccccc2)NC(=O)[C@H](CCCN)NC1=O`, the minimal inhibitory concentration (MIC) in [1] was above 64 µg/mL; in data set [2], 64 µg/mL (≈ 55.3 µM); in data set [3], above 64 µg/mL; in [4], above 64 µg/mL; in data set [6], above 64 µg/mL; in data set [7], above 64 µg/mL. For the same molecule, the MIC in data set [8], in data set [9], in [10] and in data set [11] was above 64 µg/mL in each case. In addition, the Activity in data set [5] was above 500 µM.

Regarding `CC(C)(C)[C@@H]1NC(=O)[C@H](CCCN)NC(=O)[C@@H]2CCCN2C(=O)[C@@H](Cc2ccccc2)NC(=O)[C@H](CCCN)NC(=O)[C@H](C(C)(C)C)NC(=O)[C@H](CCCN)NC(=O)[C@@H]2CCCN2C(=O)[C@@H](Cc2ccccc2)NC(=O)[C@H](CCCN)NC1=O`, the MIC in [1] is above 64 µg/mL; in data set [2], 64 µg/mL (≈ 54.6 µM); in [3], above 64 µg/mL; in [4] it was above 64 µg/mL; in [6] it was above 64 µg/mL; in data set [7] it was above 64 µg/mL. In addition, the MIC in [8], in data set [9], in data set [10] and in [11] was above 64 µg/mL in each case. For the same molecule, the Activity in data set [5] was above 500 µM.

In the case of `CC(C)C[C@@H]1NC(=O)[C@H](CCCN)NC(=O)[C@@H]2CCCN2C(=O)[C@@H](Cc2ccccc2)NC(=O)[C@H](CCCN)NC(=O)[C@H](CC(C)C)NC(=O)[C@H](CCCN)NC(=O)[C@@H]2CCCN2C(=O)[C@@H](Cc2ccccc2)NC(=O)[C@H](CCCN)NC1=O`, the minimal inhibitory concentration (MIC) in [2] is 64 µg/mL (≈ 54.6 µM); in [4] it was above 64 µg/mL; in data set [7], above 64 µg/mL; in data set [8] it was above 64 µg/mL; in data set [9], above 64 µg/mL; in [10] it was above 64 µg/mL. In data set [5], the Activity was above 500 µM.

By MIC is commonly meant the lowest concentration found to suppress growth. High values mean a less susceptible organism, low ones a more susceptible organism.
